# Measured values: US20230086703A1, “N-(4-(5-chloropyridin-3-yl)phenyl)-2-(2-(cyclopropanesulfonamido)pyrimidin-4-yl) butanamide derivatives and related compounds as human CTPS1 inhibitors for the treatment of proliferative diseases” (Step Pharma S.A.S., priority 2019, published 2023)
# Molecular target: T1, human CTPS1 (Homo sapiens, UniProt P17812)
# T1 construct: FLAG (with GG linker); His8 (with GG linker); purchased Proteros biostructures GmbH
# T1 sequence (P17812 1-591): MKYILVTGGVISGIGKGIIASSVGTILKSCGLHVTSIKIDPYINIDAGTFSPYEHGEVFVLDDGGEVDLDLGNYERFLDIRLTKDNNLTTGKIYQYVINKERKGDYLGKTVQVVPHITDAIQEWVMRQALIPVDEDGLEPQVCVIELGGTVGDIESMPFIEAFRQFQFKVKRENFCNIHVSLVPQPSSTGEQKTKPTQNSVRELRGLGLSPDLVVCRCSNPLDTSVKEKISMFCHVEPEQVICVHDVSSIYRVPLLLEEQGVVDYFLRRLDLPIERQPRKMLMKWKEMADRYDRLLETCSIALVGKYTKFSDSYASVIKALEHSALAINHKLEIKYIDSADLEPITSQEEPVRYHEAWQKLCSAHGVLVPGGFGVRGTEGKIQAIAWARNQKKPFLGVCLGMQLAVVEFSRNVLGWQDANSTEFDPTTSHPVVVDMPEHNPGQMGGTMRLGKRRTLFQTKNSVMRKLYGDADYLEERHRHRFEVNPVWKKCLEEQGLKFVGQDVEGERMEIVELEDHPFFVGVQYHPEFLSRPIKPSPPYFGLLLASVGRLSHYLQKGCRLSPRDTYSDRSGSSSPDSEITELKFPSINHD
# Assay: RapidFire/MS-based enzyme selectivity assay (human CTPS1 versus CTPS2), CTPS1 isoform
# Assay type: biochemical
# Outline: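 Full-length C-terminal FLAG-His-tagged CTPS1 (1-591) was preincubated 10 min at 25 °C with compound in HEPES pH 8.0 buffer with MgCl2, KCl, DTT and Tween-20. Reactions were started with a 2× mix of ATP 0.3 mM, UTP 0.2 mM, GTP 0.07 mM and L-glutamine 0.1 mM, and run in the linear phase at 25 °C. IC50 comes from the RapidFire-MS ratio of CTP to 13C9-15N3-CTP.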
# [1] = RapidFire/MS IC50 values of CTPS1 and CTPS2, Table 15
# [2] = RapidFire/MS IC50 values of CTPS1 and CTPS2, Table 17
# [3] = Table 16, human CTPS1 over human CTPS2, RapidFire/MS IC50 values
Selectivity (fold selectivity between CTPS1 and CTPS2) [1],Selectivity (fold selectivity between CTPS1 and CTPS2) [3],SMILES,other results
,+++ (>60 fold (+++)),"CCOc1cncc(-c2ccc(C(=O)NC(C)(C)c3csc(NS(=O)(=O)C4CC4)n3)nc2)n1 [R26, N-(2-(2-(cyclopropanesulfon-amido)thiazol-4-yl)propan-2-yl)-5-(6-ethoxypyrazin-2-yl)picolinamide]",
,++ (>30-60 fold (++)),"CCC(CC)(NC(=O)c1ccc(-c2cncc(C(F)(F)F)n2)cc1)c1csc(NS(=O)(=O)C2CC2)n1 [R19, N-(3-(2-(cyclopropanesulfon-amido)thiazol-4-yl)pentan-3-yl)-4-(6-(trifluoromethyl)pyrazin-2-yl)benzamide]",
,+++ (>60 fold (+++)),"CCOc1cncc(-c2ccc(C(=O)NC(CCOC)c3csc(NS(=O)(=O)C4CC4)n3)c(F)c2)n1 (single isomer, unassigned) [R92, N-(1-(2-(cyclopropanesulfon-amido)thiazol-4-yl)-3-methoxypropyl)-4-(6-ethoxypyrazin-2-yl)-2-fluorobenzamide]",
,+++ (>60 fold (+++)),"Cc1cc(-c2cncc(C(F)(F)F)n2)ccc1C(=O)NC1(c2csc(NS(=O)(=O)C3CC3)n2)CC1 [R83, N-(1-(2-(cyclopropanesulfon-amido)thiazol-4-yl)cyclopropyl)-2-methyl-4-(6-(trifluoromethyl)pyrazin-2-yl)benzamide]",
,++ (>30-60 fold (++)),"CCOc1cncc(-c2ccc(C(=O)NC(C)(C)c3nc(NS(=O)(=O)C4CC4)sc3C)c(F)c2)n1 [R74, N-(2-(2-(cyclopropanesulfon-amido)-5-methylthiazol-4-yl)propan-2-yl)-4-(6-ethoxypyrazin-2-yl)-2-fluorobenzamide]",
,+++ (>60 fold (+++)),"COCCC(NC(=O)c1ccc(-c2cncc(OC(C)C)n2)cc1F)c1csc(NS(=O)(=O)C2CC2)n1 (stereo not drawn) [R89, N-(1-(2-(cyclopropanesulfon-amido)thiazol-4-yl)-3-methoxypropyl)-2-fluoro-4-(6-isopropoxypyrazin-2-yl)benzamide]",
,+++ (>60 fold (+++)),"CCOc1cncc(-c2ccc(C(=O)NC(CCOC)c3csc(NS(=O)(=O)C4CC4)n3)c(F)c2)n1 (single isomer, unassigned) [R93, N-(1-(2-(cyclopropanesulfon-amido)thiazol-4-yl)-3-methoxypropyl)-4-(6-ethoxypyrazin-2-yl)-2-fluorobenzamide]",
,+++ (>60 fold (+++)),"CCOc1cncc(-c2ccc(C(=O)NC(C)(C)c3csc(NS(=O)(=O)C4CC4)n3)cc2)n1 [R55, N-(2-(2-(cyclopropanesulfon-amido)thiazol-4-yl)propan-2-yl)-4-(6-ethoxypyrazin-2-yl)benzamide]",
,+ (2-30 fold (+)),"COc1cncc(-c2ccc(C(=O)NC(C)(C)c3csc(NS(=O)(=O)C4CC4)n3)cc2)n1 [R54, N-(2-(2-(cyclopropanesulfon-amido)thiazol-4-yl)propan-2-yl)-4-(6-methoxypyrazin-2-yl)benzamide]",
,+++ (>60 fold (+++)),"CCOc1cncc(-c2ccc(C(=O)NC(CC)c3csc(NS(=O)(=O)C4CC4)n3)c(F)c2)n1 (single isomer, unassigned) [R71, N-(1-(2-(cyclopropanesulfon-amido)thiazol-4-yl)propyl)-4-(6-ethoxypyrazin-2-yl)-2-fluorobenzamide]",
,+++ (>60 fold (+++)),"CCOc1cncc(-c2ccc(C(=O)NC(CCOC)c3csc(NS(=O)(=O)C4CC4)n3)c(F)c2)n1 (stereo not drawn) [R88, N-(1-(2-(cyclopropanesulfon-amido)thiazol-4-yl)-3-methoxypropyl)-4-(6-ethoxypyrazin-2-yl)-2-fluorobenzamide]",
,+ (2-30 fold (+)),"CCOc1cncc(-c2ccc(C(=O)N(C)C(CC)c3csc(NS(=O)(=O)C4CC4)n3)c(F)c2)n1 (racemic) [R63, N-(1-(2-(cyclopropanesulfonamido)thiazol-4-yl)propyl)-4-(6-ethoxypyrazin-2-yl)-2-fluoro-N-methylbenzamide]",

# Continued, compound first:
SMILES,Selectivity (fold selectivity between CTPS1 and CTPS2) [1],Selectivity (fold selectivity between CTPS1 and CTPS2) [3],other results
"CCOc1cncc(-c2ccc(NC(=O)C3(c4ccnc(NS(=O)(=O)C5CC5)n4)CCCC3)nc2)n1 [P136, 1-(2-(cyclopropanesulfonamido)pyrimidin-4-yl)-N-(5-(6-ethoxypyrazin-2-yl)pyridin-2-yl)cyclopentane-1-carboxamide]",+++ (>60 fold (+++)),,
"CCOc1cncc(-c2ccc(NC(=O)C3(c4ccnc(NS(=O)(=O)C5CC5)n4)CCC(=O)CC3)nc2)n1 [P226, 1-(2-(Cydopropanesulfonamido)pyrimidin-4-yl)-N-(5-(6-ethoxypyrazin-2-yl)pyridin-2-yl)-4-oxocyclohexanecarboxamide]",,,Selectivity (fold selectivity between CTPS1 and CTPS2) [2]: +++ (>60 fold (+++))
"CCOc1cncc(-c2ccc(NC(=O)C3(c4ccnc(NS(=O)(=O)C5CC5)n4)CCC(O)CC3)nc2)n1 (single isomer, unassigned) [P228, 1-(2-(cyclopropanesulfonamido)pyrimidin-4-yl)-N-(5-(6-ethoxypyrazin-2-yl)pyridin-2-yl)-4-hydroxycyclohexanecarboxamide]",,,Selectivity (fold selectivity between CTPS1 and CTPS2) [2]: +++ (>60 fold (+++))
"CCOc1cncc(-c2ccc(NC(=O)C(C)(C)c3ccnc(NS(=O)(=O)CC)n3)cc2)n1 [P74, N-(4-(6-ethoxypyrazin-2-yl)phenyl)-2-(2-(ethylsulfonamido)pyrimidin-4-yl)-2-methylpropanamide]",++ (>30-60 fold (++)),,
"CCOc1cncc(-c2ccc(NC(=O)C3(c4ccnc(NS(=O)(=O)C5CC5)n4)CCC(N(C)C)CC3)nc2)n1 (single isomer, unassigned) [P229, 1-(2-(cyclopropanesulfonamido)pyrimidin-4-yl)-4-(dimethylamino)-N-(5-(6-ethoxypyrazin-2-yl)pyridin-2-yl)cyclohexane-1-carboxamide]",,,Selectivity (fold selectivity between CTPS1 and CTPS2) [2]: +++ (>60 fold (+++))
"CCOc1cncc(-c2ccc(C(=O)NCc3csc(NS(=O)(=O)C4CC4)n3)c(F)c2)n1 [R11, N-((2-(cyclopropanesulfon-amido)thiazol-4-yl)methyl)-4-(6-ethoxypyrazin-2-yl)-2-fluorobenzamide]",,++ (>30-60 fold (++)),
"CCOc1cncc(-c2ccc(NC(=O)C3(c4ccnc(NS(=O)(=O)C5CC5)n4)CC3)cc2)n1 [P83, 1-(2-(cyclopropanesulfonamido)pyrimidin-4-yl)-N-(4-(6-ethoxypyrazin-2-yl)phenyl)cyclopropanecarboxamide]",+++ (>60 fold (+++)),,
"CCOc1cncc(-c2ccc(NC(=O)C3(c4ccnc(NS(=O)(=O)C5CC5)n4)CCOCC3)nc2)n1 [P115, 4-(2-(Cyclopropanesulfonamido)pyrimidin-4-yl)-N-(5-(6-ethoxypyrazin-2-yl)pyridin-2-yl)tetrahydro-2H-pyran-4-carboxamide]",+++ (>60 fold (+++)),,
"CCOc1cncc(-c2ccc(NC(=O)C3(c4ccnc(NS(=O)(=O)C5CC5)n4)CCCC3)cc2)n1 [P2, 1-(2-(Cyclopropanesulfonamido)pyrimidin-4-yl)-N-(4-(6-ethoxypyrazin-2-yl)phenyl)cyclopentanecarboxamide]",+++ (>60 fold (+++)),,
"CCOc1cncc(-c2ccc(NC(=O)C(CCOC)c3ccnc(NS(=O)(=O)C4CC4)n3)cc2)n1 (stereo not drawn) [P110, 2-(2-(cyclopropanesulfonamido)pyrimidin-4-yl)-N-(4-(9-ethoxypyrazin-2-yl)phenyl)-4-methoxypbutanamide]",++ (>30-60 fold (++)),,
"CCC(C(=O)Nc1ccc(-c2cncc(OC)n2)cc1F)c1ccnc(NS(=O)(=O)C2CC2)n1 (stereo not drawn) [P95, 2-(2-(cyclopropanesulfonamido)pyrimidin-4-yl)-N-(2-fluoro-4-(6-methoxypyrazin-2-yl)phenyl)butanamide]",+ (2-30 fold (+)),,
"CCOc1cncc(-c2ccc(NC(=O)C(OC)c3ccnc(NS(=O)(=O)C4CC4)n3)cc2)n1 (stereo not drawn) [P164, 2-(2-(cyclopropanesulfonamido)pyrimidin-4-yl)-N-(4-(6-ethoxypyrazin-2-yl)phenyl)-2-methoxyacetamide]",+ (2-30 fold (+)),,
